Assay results: ChEMBL document CHEMBL1201862, “PubChem BioAssay data set” (2004)
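48-hour exposure; five concentrations; linearly interpolated endpoints. The concentration for 50% growth inhibition is given as GI50.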 Active and inactive are the calls of the source. No stated cut-off is given here; in the data, active = GI50 up to about 1.1 µM and inactive = higher.

What was measured:
Assay in all cases: growth of human tumour cells (NCI), 48 h
[1] = test system: NCI-H460
[2] = test system: ACHN
[3] = test system: MCF7
[4] = test system: MDA-MB-231
[5] = test system: CAKI-1
[6] = test system: TK-10
[7] = test system: BT-549
[8] = test system: LOX IMVI
[9] = test system: UO-31
[10] = test system: OVCAR-4
[11] = test system: KM12
[12] = test system: UACC-62
[13] = test system: OVCAR-8
[14] = test system: RXF 393
[15] = test system: U-251
[16] = test system: NCI-H23
[17] = test system: MOLT-4
[18] = test system: OVCAR-3
[19] = test system: HCC 2998
[20] = test system: CCRF-CEM

Row | Structure (SMILES) | GI50 [1] | GI50 [2] | GI50 [3] | GI50 [4] | GI50 [5] | GI50 [6] | GI50 [7] | GI50 [8] | GI50 [9] | GI50 [10] | GI50 [11] | GI50 [12] | GI50 [13] | GI50 [14] | GI50 [15] | GI50 [16] | GI50 [17] | GI50 [18] | GI50 [19] | GI50 [20]
1 | CSc1nc(NC2CCCC2)c2cc[nH]c2n1 | > 100 µM (inactive) | 64.7 µM (inactive) | 57.3 µM (inactive) | 36.1 µM (inactive) | > 100 µM (inactive) | 72.6 µM (inactive) | 74.6 µM (inactive) | 37.6 µM (inactive) | 48.1 µM (inactive) | 48.5 µM (inactive) | 54.6 µM (inactive) | 23.5 µM (inactive) | 89.1 µM (inactive) | > 100 µM (inactive) | 36.4 µM (inactive) | 91 µM (inactive) | 42.4 µM (inactive) | 54.1 µM (inactive) | > 100 µM (inactive) | 47.4 µM (inactive)
2 | Cc1cc(S(=O)(=O)Nc2nc3cc(-c4ccc(Cl)cc4)sc3c(=O)n2N)c(S)cc1Cl | 36.6 µM (inactive) | 26.5 µM (inactive) | 44.7 µM (inactive) | 56.6 µM (inactive) | > 100 µM (inactive) | 73.6 µM (inactive) | > 100 µM (inactive) | 45.4 µM (inactive) | 44.4 µM (inactive) | 64.4 µM (inactive) | 34.2 µM (inactive) | 31.7 µM (inactive) | 50.2 µM (inactive) | 37.2 µM (inactive) | 43.4 µM (inactive) | 59.8 µM (inactive) | 21.3 µM (inactive) | > 100 µM (inactive) | 94.4 µM (inactive) | 27.2 µM (inactive)
3 | O=C(CCCC1Cc2ccccc2C1=O)c1ccccc1 (stereo not given) | 89.9 µM (inactive) | 98.4 µM (inactive) | 31.2 µM (inactive) | > 100 µM (inactive) | > 100 µM (inactive) | 84.5 µM (inactive) | 38.6 µM (inactive) | 34.8 µM (inactive) | 47.1 µM (inactive) | 59.3 µM (inactive) | 96.4 µM (inactive) | 69.5 µM (inactive) | 79.6 µM (inactive) | 52.5 µM (inactive) | 38.6 µM (inactive) | 60.1 µM (inactive) | 33.3 µM (inactive) | 47.4 µM (inactive) | > 100 µM (inactive) | 66.5 µM (inactive)
4 | CNC(=O)N(C1=NCC(C)S1)c1ccc(C)c(C)c1 (stereo not given) | 3.36 µM (inactive) | 12 µM (inactive) | 2.77 µM (inactive) | 12.1 µM (inactive) | 2.7 µM (inactive) | 9.04 µM (inactive) | 27.3 µM (inactive) | 5.09 µM (inactive) | 8.26 µM (inactive) | 13.6 µM (inactive) | 3.15 µM (inactive) | 3.56 µM (inactive) | 4.74 µM (inactive) | 2.46 µM (inactive) | 3.59 µM (inactive) | 7.08 µM (inactive) | 4.81 µM (inactive) | 2.4 µM (inactive) | 4.28 µM (inactive) | 2.39 µM (inactive)
5 | O=[N+]([O-])C(/C(Cl)=C(\Cl)Br)=C(/Cl)SCc1ccccc1 | 12.8 µM (inactive) | 2.97 µM (inactive) | 2.95 µM (inactive) | 2.94 µM (inactive) | 1.8 µM (inactive) | 4.5 µM (inactive) | 2.56 µM (inactive) | 1.86 µM (inactive) | 2.52 µM (inactive) | 3.87 µM (inactive) | 14.4 µM (inactive) | 3.2 µM (inactive) | 2.26 µM (inactive) | 2.35 µM (inactive) | 6.46 µM (inactive) | 5.71 µM (inactive) | 0.778 µM (active) | 2.74 µM (inactive) | 11.2 µM (inactive) | 0.507 µM (active)
